Laboratory results: US20220062240A1, “METHODS OF TREATING CANCER USING A CLK INHIBITOR” (BioSplice Therapeutics, Inc., priority 2018, published 2022)
Read-outs that look alike come from different tables or passages of the source.

Legend:
[1] = test system: prostate cancer (5 cell lines); assay: CellTiter-Glo Viability Assay, prostate cancer; type: cell-based; settings: Homo sapiens
[2] = test system: ovarian cancer (4 cell lines); assay: CellTiter-Glo Viability Assay, ovarian cancer; type: cell-based; settings: Homo sapiens, inhibition of cancer cell proliferation
[3] = test system: liver cancer (3 cell lines); assay: CellTiter-Glo Viability Assay, liver cancer; type: cell-based; settings: Homo sapiens, inhibition of cancer cell proliferation
all 50 cell lines = assay: CellTiter-Glo Viability Assay, average across all cell lines; type: cell-based; settings: Homo sapiens; across all 50 cell lines; read-out: average EC50 for inhibition of cancer cell proliferation
Summary of the method: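 Cancer cell lines of several tumour types plated at 300-3,000 cells/well and exposed to compound in duplicate for four days at 37° C, 5% CO2, with DMSO-treated controls. Viability read by CellTiter-Glo luminescence (ATP content); EC50 derived from dose-response curves.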

[4] = test system: lung cancer (4 cell lines); assay: CellTiter-Glo Viability Assay, lung cancer; type: cell-based; settings: Homo sapiens, inhibition of cancer cell proliferation
CLK2 = target: T1, CLK2 (Homo sapiens, UniProt P49760); assay: CLK2 kinase activity assay (Z-lyte, Ser/Thr 6 peptide); type: biochemical; settings: recombinant CLK2 kinase, ATP 60 μM; read-out: EC50
T1 construct: purchased Thermo Fisher (Life Technologies), Z'-LYTE Kinase Assay Kits
Method: All reactions were performed in duplicate.

[5] = test system: colorectal cancer (6 cell lines); assay: CellTiter-Glo Viability Assay, colorectal cancer; type: cell-based; settings: Homo sapiens, inhibition of cancer cell proliferation
T47D = assay: CellTiter-Glo Viability Assay, breast cancer; type: cell-based; settings: Homo sapiens, 96 h, breast cancer, four days, read-out: EC50
MCF7 = assay: CellTiter-Glo Viability Assay, breast cancer; type: cell-based; settings: Homo sapiens, 96 h; MCF7, breast cancer, four days; read-out: EC50
HCC1599 = assay: CellTiter-Glo Viability Assay, breast cancer; type: cell-based; settings: Homo sapiens, 96 h; HCC1599, breast cancer, four days; read-out: EC50
DU4475 = assay: CellTiter-Glo Viability Assay, breast cancer; type: cell-based; settings: Homo sapiens, DU-4475, 96 h; DU4475, breast cancer, four days; read-out: EC50
ZR-75-1 = assay: CellTiter-Glo Viability Assay, breast cancer; type: cell-based; settings: Homo sapiens, 96 h; ZR-75-1, breast cancer, four days; read-out: EC50
MDA-MB-231-Luc = assay: CellTiter-Glo Viability Assay, breast cancer; type: cell-based; settings: Homo sapiens, 96 h; MDA-MB-231-Luc, breast cancer, four days; read-out: EC50
BT-549 = assay: CellTiter-Glo Viability Assay, breast cancer; type: cell-based; settings: Homo sapiens, 96 h; BT-549, breast cancer, four days; read-out: EC50
CAMA1 = assay: CellTiter-Glo Viability Assay, breast cancer; type: cell-based; settings: Homo sapiens, CAMA-1, 96 h; CAMA1, breast cancer, four days; read-out: EC50
[6] = test system: haematopoietic & lymphoid tumors (13 cell lines); assay: CellTiter-Glo Viability Assay, haematopoietic & lymphoid tumors; type: cell-based; settings: Homo sapiens, inhibition of cancer cell proliferation

T1 sequence (P49760 whole entry): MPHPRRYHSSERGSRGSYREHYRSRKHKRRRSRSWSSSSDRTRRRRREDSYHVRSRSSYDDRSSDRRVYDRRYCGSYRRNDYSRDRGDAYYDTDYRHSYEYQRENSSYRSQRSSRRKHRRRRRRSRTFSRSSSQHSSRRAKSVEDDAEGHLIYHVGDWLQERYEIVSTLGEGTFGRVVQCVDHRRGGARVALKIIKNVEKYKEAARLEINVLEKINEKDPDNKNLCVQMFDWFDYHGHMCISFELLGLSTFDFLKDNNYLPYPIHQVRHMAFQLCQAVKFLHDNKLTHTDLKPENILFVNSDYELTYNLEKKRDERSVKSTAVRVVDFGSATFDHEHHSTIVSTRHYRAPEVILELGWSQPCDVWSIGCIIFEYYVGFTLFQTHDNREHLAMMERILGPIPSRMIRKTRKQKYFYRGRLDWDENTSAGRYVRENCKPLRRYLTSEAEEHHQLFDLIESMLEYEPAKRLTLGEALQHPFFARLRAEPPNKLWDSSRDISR

With `Cn1cc(-c2ccc3cnc(NC(=O)c4ccc5c(c4)CNCC5)cc3c2)cn1` [Compound 74] the EC50 ([1]; DU-145, read-out: Prostate cancer EC50 Du-145) was 549 nM, the EC50 ([1]; PC-3, PC3 cell line, inhibition of cancer cell proliferation, read-out: Prostate cancer EC50 PC3) was 438 nM and the EC50 ([1]; 22Rv1 cell line, inhibition of cancer cell proliferation, read-out: Prostate cancer EC50 22Rv1) was 347 nM. The EC50 ([1]; LNCap clone FGC cell line, inhibition of cancer cell proliferation, read-out: Prostate cancer EC50 LNCap clone FGC) was 587 nM, the EC50 ([1]; VCaP (Sigma) cell line, inhibition of cancer cell proliferation, read-out: Prostate cancer EC50 VCaP (Sigma)) was 823 nM and the EC50 ([2]; PA-1, PA1 cell line, read-out: Ovarian cancer, EC50 (μM) PA1) was 0.495 µM. The EC50 ([2]; TOV112D, TOV-112D cell line, read-out: Ovarian cancer, EC50 (μM) TOV-112D) was 0.229 µM, the EC50 ([2]; OV-90 cell line, read-out: Ovarian cancer, EC50 (μM) OV-90) was 1.49 µM and the EC50 ([2]; OVCAR-3 cell line, read-out: Ovarian cancer, EC50 (μM) OVCAR-3) was 0.195 µM. For the same compound, the EC50 ([3]; SNU-398, SNU398 cell line, read-out: Liver cancer, EC50 SNU398) was 121 nM, the EC50 ([3]; HEPG2 cell line, read-out: Liver cancer, EC50 HEPG2) was 716 nM and the EC50 ([3]; PLC/PRF/5 cell line, read-out: Liver cancer, EC50 PLC/PRF/5) was 1100 nM. It also gave an EC50 (all 50 cell lines) of 504 nM, an EC50 ([4]; A-427, A427 cell line, read-out: Lung cancer, EC50 (μM) A427) of 0.355 µM and an EC50 ([4]; HCC78, HCC-78 cell line, read-out: Lung cancer, EC50 (μM) HCC-78) of 0.835 µM. For the same compound, the EC50 ([4]; NCI-H460 cell line, read-out: Lung cancer, EC50 (μM) NCI-H460) was 0.574 µM, the EC50 ([4]; NCI-H522 cell line, read-out: Lung cancer, EC50 (μM) NCI-H522) was 0.188 µM and the EC50 (CLK2) was 1.9 nM. The EC50 ([5]; HCT-116, HCT116 cell line, read-out: Colorectal cancer, EC50 (μM) HCT116) was 0.239 µM, the EC50 ([5]; HT-29, HT29 cell line, read-out: Colorectal cancer, EC50 (μM) HT29) was 0.52 µM and the EC50 ([5]; SW-620, SW620 cell line, read-out: Colorectal cancer, EC50 (μM) SW620) was 0.163 µM. For the same compound, the EC50 ([5]; DLD-1 cell line, read-out: Colorectal cancer, EC50 (μM) DLD-1) was 0.215 µM, the EC50 ([5]; SW48 cell line, read-out: Colorectal cancer, EC50 (μM) SW48) was 0.151 µM and the EC50 ([5]; SW480 cell line, read-out: Colorectal cancer, EC50 (μM) SW480) was 0.313 µM. For the same compound, the EC50 (T47D) was 997 nM, the EC50 (MCF7) was 1900 nM and the EC50 (HCC1599) was 168 nM. For the same compound, the EC50 (DU4475) was 302 nM, the EC50 (ZR-75-1) was 971 nM and the EC50 (MDA-MB-231-Luc) was 750 nM. The EC50 (BT-549) was 346 nM, the EC50 (CAMA1) was 694 nM and the EC50 ([6]; DND41, DND-41 cell line, read-out: Haematopoietic & Lymphoid tumors, EC50 (μM) DND-41) was 0.491 µM. The EC50 ([6]; MV4-11, MV-4-11 cell line, read-out: Haematopoietic & Lymphoid tumors, EC50 (μM) MV-4-11) was 0.076 µM, the EC50 ([6]; Rec1, REC-1 cell line, read-out: Haematopoietic & Lymphoid tumors, EC50 (μM) REC-1) was 0.134 µM and the EC50 ([6]; SU-DHL-4, SUDHL4 cell line, read-out: Haematopoietic & Lymphoid tumors, EC50 (μM) SUDHL4) was 0.376 µM. It also gave an EC50 ([6]; HL-60 cell line, read-out: Haematopoietic & Lymphoid tumors, EC50 (μM) HL-60) of 0.76 µM, an EC50 ([6]; JM1 cell line, read-out: Haematopoietic & Lymphoid tumors, EC50 (μM) JM1) of 0.135 µM and an EC50 ([6]; JURKAT, Clone E6-1 cell line, read-out: Haematopoietic & Lymphoid tumors, EC50 (μM) JURKAT, Clone E6-1) of 0.464 µM. For the same compound, the EC50 ([6]; JeKo-1 cell line, read-out: Haematopoietic & Lymphoid tumors, EC50 (μM) JeKo-1) was 0.157 µM, the EC50 ([6]; KASUMI-1 cell line, read-out: Haematopoietic & Lymphoid tumors, EC50 (μM) KASUMI-1) was 0.203 µM and the EC50 ([6]; Loucy cell line, read-out: Haematopoietic & Lymphoid tumors, EC50 (μM) Loucy) was 0.241 µM. The EC50 ([6]; MOLT-4 cell line, read-out: Haematopoietic & Lymphoid tumors, EC50 (μM) MOLT-4) was 0.465 µM, the EC50 ([6]; TF-1 cell line, read-out: Haematopoietic & Lymphoid tumors, EC50 (μM) TF-1) was 0.673 µM and the EC50 ([6]; TOLEDO cell line, read-out: Haematopoietic & Lymphoid tumors, EC50 (μM) TOLEDO) was 0.134 µM.
